Measured values from patent US4698350A, “1-ethyl-6-fluoro-1,4-dihydro- 7-(2,6-dimethyl-4-pyridinyl)-4-oxo-3-quinolinecarboxylic acid and antibacterial use thereof” (Sterling Drug Inc., priority 1984, dated 1987).
Converted amounts (≈) assume the structure as drawn. Where two headings read alike, the source gives them in different places.

Experiments:
periodontal diseases = settings: cited from earlier work; for usefulness in treating periodontal disease (in words): Genco 1981
B. oralis = assay: Agar dilution MIC, anaerobic microorganisms; assay type: cell-based; settings: Hoylesella oralis, 48 h
Method: (§1) 1. Maintenance. Prior to use, all strains were maintained in the lyophilized state. During the study, cultures were examined on blood agar basal medium supplemented with 5.0% (v/v) defibrinated rabbit blood. Culture transfer was accomplished weekly with all cultures being incubated in an anaerobic atmosphere (GasPak jar; BBL).
(§2) 2. Agar Medium. The basal test medium consisted of trypticase soy agar (40 g), yeast extract (1 g), glucose (2 g) and 960 ml of distilled water pH 7.2. [Mashimo et al., J. Clin. Micro. 17, 187-191 (1983)]. Subsequent to sterilization and cooling to 50° C., the medium was supplemented with 4% (v/v) defibrinated rabbit blood and 0.5 μg/ml menadione (Vitamin K3) The agent under evaluation was also added at this time to the concentration desired. Subsequent to pouring of the plates, they were permitted to dry at 4° C. for 24 hr.
(§3) 3. Determination of Agent MIC. The minimal inhibitory concentration (MIC) of the various test agents was determined using an agar dilution technique. Agents and appropriate reference compounds were added to achieve a series of concentrations ranging between 32 μg/ml and 0.007 μg/ml. The inocula were prepared from 96-hr. cultures grown on the maintenance medium. Subsequent to a purity evaluation, colonies were removed and suspended in trypticase soy broth supplemented with 5 μg/ml menadione and 2% lysed rabbit blood filtrate to achieve an OD650 of 0.1 (this corresponded to approximately 10^8 cells/ml). Cultures were inoculated aerobically on the modified trypticase soy blood agar plates by use of a Steer's replicator (which delivers about 10^5 cells per spot). The plates were allowed to dry for a time not exceeding 30 min. and then incubated at 37° C. under an atmosphere of […], 10% H2 and 5% CO2 maintained in an anaerobic chamber (Coy Manufacturing Co.) for 48 hr. The MIC was defined as the lowest concentration completely inhibiting growth.
(§4) Tetracycline stock solutions (1 mg/ml) were made subsequent to dissolution in water. Stock solutions (1 mg/ml) of the remaining test compounds were made subsequent to dissolution in 1/10 N NaOH.

Eikenella corrodens = assay: Agar dilution MIC, anaerobic microorganisms; assay type: cell-based; settings: 48 h
Method: as §1, §2, §3, §4

Capnocytophaga suptigena = assay: Agar dilution MIC, anaerobic microorganisms; assay type: cell-based; settings: 48 h
Method: as §1, §2, §3, §4

A. actinomycetemcomitans = assay: Agar dilution MIC, anaerobic microorganisms; assay type: cell-based; settings: Aggregatibacter actinomycetemcomitans, 48 h
Method: as §1, §2, §3, §4

B. intermedius = assay: Agar dilution MIC, anaerobic microorganisms; assay type: cell-based; settings: Prevotella intermedia, 48 h
Method: as §1, §2, §3, §4

B. fragilis = assay: Agar dilution MIC, anaerobic microorganisms; assay type: cell-based; settings: Bacteroides fragilis, 48 h
Method: as §1, §2, §3, §4

B. gingivalis = assay: Agar dilution MIC, anaerobic microorganisms; assay type: cell-based; settings: Porphyromonas gingivalis, 48 h
Method: as §1, §2, §3, §4

B. melaninogenicus = assay: Agar dilution MIC, anaerobic microorganisms; assay type: cell-based; settings: 48 h
Method: as §1, §2, §3, §4

A. viscosus = assay: Agar dilution MIC, anaerobic microorganisms; assay type: cell-based; settings: Actinomyces viscosus, 48 h
Method: as §1, §2, §3, §4

F. polymorphum = assay: Agar dilution MIC, anaerobic microorganisms; assay type: cell-based; settings: 48 h
Method: as §1, §2, §3, §4

F. nucleatum = assay: Agar dilution MIC, anaerobic microorganisms; assay type: cell-based; settings: Fusobacterium nucleatum, 48 h
Method: as §1, §2, §3, §4

Campylobacter sputorum = assay: Agar dilution MIC, anaerobic microorganisms; assay type: cell-based; settings: 48 h
Method: as §1, §2, §3, §4

Wolinella recta = assay: Agar dilution MIC, anaerobic microorganisms; assay type: cell-based; settings: Campylobacter rectus, 48 h
Method: as §1, §2, §3, §4

[1] = test system: all thirteen of the target anaerobic microorganisms; assay: Antimicrobial activity against anaerobic microorganisms; assay type: cell-based
Method: as §1, §2, §3, §4

[2] = Capnocytophaga suptigena, read-out: MIC
[3] = A. actinomycetemcomitans, read-out: MIC
[4] = B. melaninogenicus, read-out: MIC

| MIC (B. oralis; B. oralis, read-out: MIC) [µg/mL] | MIC (Eikenella corrodens; read-out: MIC) [µg/mL] | MIC (Campylobacter sputorum) [µg/mL] | MIC (Capnocytophaga suptigena; [2]) [µg/mL] | MIC (A. actinomycetemcomitans; [3]) [µg/mL] | MIC (Wolinella recta) [µg/mL] | MIC (B. intermedius; B. intermedius, read-out: MIC) [µg/mL] | MIC (B. fragilis; B. fragilis, read-out: MIC) [µg/mL] | MIC (B. gingivalis; B. gingivalis, read-out: MIC) [µg/mL] | MIC (B. melaninogenicus; [4]) [µg/mL] | MIC (A. viscosus; A. viscosus, read-out: MIC) [µg/mL] | MIC (F. polymorphum; F. polymorphum, read-out: MIC) [µg/mL] | MIC (F. nucleatum; F. nucleatum, read-out: MIC) [µg/mL] | Compound | usefulness in treating periodontal disease (in words) (periodontal diseases) | activity against microorganisms considered to participate in periodontal disease (in words) (periodontal diseases) | antimicrobial activity (in words) [1] | also measured |
| --- | --- | --- | --- | --- | --- | --- | --- | --- | --- | --- | --- | --- | --- | --- | --- | --- | --- |
| 4 (≈ 12.5 µM) | 4 (≈ 12.5 µM) | 2 (≈ 6.26 µM) | 0.5 (≈ 1.57 µM) | 0.06 (≈ 0.188 µM) | 0.12 (≈ 0.376 µM) | 0.5 (≈ 1.57 µM) | > 10 | 4 (≈ 12.5 µM) | 4 (≈ 12.5 µM) | > 10 | > 10 | 8 (≈ 25.1 µM) | CCn1cc(C(=O)O)c(=O)c2cc(F)c(N3CCNCC3)cc21 [50,297, 1-ethyl-6-fluoro-1,4-dihydro-4-oxo-7-(1-piperazinyl)-3-quinolinecarboxylicacid] |  |  | less active |  |
| 4 (≈ 12 µM) | 4 (≈ 12 µM) | 4 (≈ 12 µM) | 0.25 (≈ 0.75 µM) | 0.06 (≈ 0.18 µM) | 0.25 (≈ 0.75 µM) | 0.5 (≈ 1.5 µM) | 8 (≈ 24 µM) | 4 (≈ 12 µM) | 4 (≈ 12 µM) | > 10 | 8 (≈ 24 µM) | 8 (≈ 24 µM) | CCn1cc(C(=O)O)c(=O)c2cc(F)c(N3CCN(C)CC3)cc21 [50,150, 1-ethyl-6-fluoro-1,4-dihydro-7-(4-methyl-1-piperazinyl)-4-oxo-3-quinolinecarboxylic acid] |  |  | less active |  |

Continued, molecule first:

| Compound | MIC (B. oralis; B. oralis, read-out: MIC) [µg/mL] | MIC (Eikenella corrodens; read-out: MIC) [µg/mL] | MIC (Campylobacter sputorum) [µg/mL] | MIC (Capnocytophaga suptigena; [2]) [µg/mL] | MIC (A. actinomycetemcomitans; [3]) [µg/mL] | MIC (Wolinella recta) [µg/mL] | MIC (B. intermedius; B. intermedius, read-out: MIC) [µg/mL] | MIC (B. fragilis; B. fragilis, read-out: MIC) [µg/mL] | MIC (B. gingivalis; B. gingivalis, read-out: MIC) [µg/mL] | MIC (B. melaninogenicus; [4]) [µg/mL] | MIC (A. viscosus; A. viscosus, read-out: MIC) [µg/mL] | MIC (F. polymorphum; F. polymorphum, read-out: MIC) [µg/mL] | MIC (F. nucleatum; F. nucleatum, read-out: MIC) [µg/mL] | usefulness in treating periodontal disease (in words) (periodontal diseases) | activity against microorganisms considered to participate in periodontal disease (in words) (periodontal diseases) | antimicrobial activity (in words) [1] | also measured |
| --- | --- | --- | --- | --- | --- | --- | --- | --- | --- | --- | --- | --- | --- | --- | --- | --- | --- |
| CN(C)C1C(=O)C(C(N)=O)=C(O)C2(O)C(=O)C3=C(O)c4c(O)cccc4C(C)(O)C3CC12 (centres unmarked) [9,424] |  |  |  |  |  |  |  |  |  |  |  |  |  | particularly useful | not active against all the microorganisms |  | MIC (B. oralis): 0.12 µg/mL (≈ 0.27 µM); MIC (Eikenella corrodens): 2 µg/mL (≈ 4.5 µM); MIC (Capnocytophaga suptigena; Capnocytophaga): 1 µg/mL (≈ 2.25 µM); MIC (A. actinomycetemcomitans): 1 µg/mL (≈ 2.25 µM); MIC (B. intermedius): 2 µg/mL (≈ 4.5 µM); MIC (B. fragilis): 1 µg/mL (≈ 2.25 µM); MIC (B. gingivalis): 0.12 µg/mL (≈ 0.27 µM); MIC (B. melaninogenicus): 0.5 µg/mL (≈ 1.13 µM); MIC (A. viscosus): 2 µg/mL (≈ 4.5 µM); MIC (F. polymorphum): 0.12 µg/mL (≈ 0.27 µM); MIC (F. nucleatum): 0.75 µg/mL (≈ 1.69 µM) |
| CCn1cc(C(=O)O)c(=O)c2ccc(-c3ccncc3)cc21 [35,213, 1-ethyl-1,4-dihydro-4-oxo-7-(4-pyridinyl)-3-quinolinecarboxylic acid] | > 10 | 8 (≈ 27.2 µM) | > 10 | 1 (≈ 3.4 µM) | 0.12 (≈ 0.408 µM) | 0.5 (≈ 1.7 µM) | 0.5 (≈ 1.7 µM) | > 10 | > 10 | 8 (≈ 27.2 µM) | > 10 | > 10 | > 10 |  |  |  |  |
| Cc1ncc([N+](=O)[O-])n1CCO [metronidazole] |  |  |  |  |  |  |  |  |  |  |  |  |  | particularly useful | not active against all the microorganisms |  |  |
